In ChEMBL document CHEMBL6083209, “Pyridazinone-based derivatives as anticancer agents endowed with anti-microbial activity: molecular design, synthesis, and biological investigation” (RSC Med Chem, 2024):
≈ marks a conversion by molar mass, not a printed value.

Experiments:
[1] = system: Candida albicans; test: Antimicrobial activity against Candida albicans ATCC 10231 by broth microdilution method
[2] = system: Escherichia coli; test: Antimicrobial activity against Escherichia coli ATCC 25922 by broth microdilution method
[3] = system: Staphylococcus aureus; test: Antimicrobial activity against Staphylococcus aureus ATCC 29213 by broth microdilution method
[4] = system: Staphylococcus aureus; test: Antimicrobial activity against Staphylococcus aureus; type: functional

| MIC [1] | MIC [2] | MIC [3] | MIC [4] | Structure (SMILES) |
| --- | --- | --- | --- | --- |
| 512 µg/mL (≈ 1290 µM) | 256 µg/mL (≈ 644 µM) | 512 µg/mL (≈ 1290 µM) |  | O=C1CCC(c2ccc(NC(=S)NC(=O)c3ccc([N+](=O)[O-])cc3)cc2)=NN1 |
| 256 µg/mL (≈ 674 µM) | 256 µg/mL (≈ 674 µM) | 128 µg/mL (≈ 337 µM) |  | O=c1ccc(-c2ccc(NS(=O)(=O)c3ccc(F)c(Cl)c3)cc2)n[nH]1 |
|  |  |  | 0.5 µg/mL (≈ 1.11 µM) | N#Cc1ccc(Oc2cccc(NC(=O)Nc3ccc(Cl)c(C(F)(F)F)c3)c2)c(F)c1 |
| 64 µg/mL (≈ 188 µM) | > 1020 µg/mL | 512 µg/mL (≈ 1500 µM) |  | O=c1ccc(-c2ccc(NC(=S)Nc3cccc(F)c3)cc2)n[nH]1 |
| 512 µg/mL (≈ 1180 µM) | 512 µg/mL (≈ 1180 µM) | 1020 µg/mL (≈ 2370 µM) |  | O=c1ccc(/C=C/c2ccc(NS(=O)(=O)c3cccc(Br)c3)cc2)n[nH]1 |
| 256 µg/mL (≈ 708 µM) | 256 µg/mL (≈ 708 µM) | 128 µg/mL (≈ 354 µM) |  | O=c1ccc(-c2ccc(NS(=O)(=O)c3ccc(Cl)cc3)cc2)n[nH]1 |
| 512 µg/mL (≈ 1130 µM) | 256 µg/mL (≈ 564 µM) | 128 µg/mL (≈ 282 µM) |  | O=C(NC(=S)Nc1ccc(-c2ccc(=O)[nH]n2)cc1)c1c(Cl)cc(Cl)cc1Cl |
|  |  |  | 0.5 µg/mL (≈ 0.985 µM) | O=C(Nc1ccc(Cl)c(C(F)(F)F)c1)C(CCl)C(=O)Nc1ccc(Cl)c(C(F)(F)F)c1 |
| 512 µg/mL (≈ 1390 µM) | 256 µg/mL (≈ 695 µM) | 256 µg/mL (≈ 695 µM) |  | O=C(NC(=S)Nc1ccc(-c2ccc(=O)[nH]n2)cc1)c1ccc(F)cc1 |
|  |  |  | > 128 µg/mL | O=C(Nc1ccc(Oc2ccc(=O)[nH]n2)cc1)Nc1ccc(Cl)c(C(F)(F)F)c1 |
| 512 µg/mL (≈ 1330 µM) | > 1020 µg/mL | > 1020 µg/mL |  | O=C(Nc1ccc(Br)cc1)Nc1ccc(-c2ccc(=O)[nH]n2)cc1 |
| 512 µg/mL (≈ 1210 µM) | 512 µg/mL (≈ 1210 µM) | 512 µg/mL (≈ 1210 µM) |  | O=c1ccc(/C=C/c2ccc(NS(=O)(=O)c3ccc(Cl)c(Cl)c3)cc2)n[nH]1 |
| 512 µg/mL (≈ 1270 µM) | 256 µg/mL (≈ 635 µM) | 512 µg/mL (≈ 1270 µM) |  | O=C(NC(=S)Nc1ccc(-c2ccc(=O)[nH]n2)cc1)c1ccc(F)c(Cl)c1 |
